Results taken from US11447505B1, “Pyrrolo[2,3-b]pyridine compounds and their use in the treatment of cancer” (priority 2017, dated 2022).
Read-outs that look alike come from different tables or passages of the source.

Legend:
ROCK1 [1] = target: T1, ROCK1 (Homo sapiens (Human), UniProt Q13464); test: biochemical
Procedure: (§2) MRCKα, MRCKβ, ROCK1 and ROCK2 assays were performed using an IMAP fluorescence polarization assay format (Molecular Devices Inc.). […] Typically, dose response analyses were performed over concentration ranges from 0.005-100 μM. […] After 30 min incubation to allow binding reagent to bind phosphorylated peptide, fluorescence polarization was measured on a Tecan Saphire^2 plate reader at excitation (470 nm) and emission (530 nm) wavelengths.

MRCKβ [2] = target: T2, MRCKβ (Homo sapiens (Human), UniProt Q9Y5S2); test: MRCKβ kinase assay (IMAP fluorescence polarization); format: biochemical; details: 1 μM ATP; read-out: MRCK-B Average Ki
Description: (§1) MRCKα, MRCKβ, ROCK1 and ROCK2 Kinase Assays

ROCK2 = ROCK2 (Homo sapiens (Human), UniProt O75116); test: ROCK2 kinase assay (IMAP fluorescence polarization); format: biochemical; details: 1 μM ATP; read-out: ROCK2 Average Ki
MRCKβ [3] = target: T2, MRCKβ; test: MRCKβ cellular assay (pMLC T18/S19 immunoblot, MDA-MB-231 cells with doxycycline inducible kinase domain); format: cell-based; details: MDA-MB-231 cells, doxycycline inducible kinase domain, 60 minutes, pMLC (T18/S19); read-out: Cellular assay - MRCK-b inhibition MEAN
Procedure: MRCKβ, ROCK1 and ROCK2 Cellular Assays
MDA-MB-231 cells expressing doxycycline inducible ROCK1, ROCK2 or MRCKβ kinase domains were plated at 1.1×10^5 cells per well of a 12 well plate. After 24 hours, cells were treated with 1 μg/ml doxycycline for 18 hours to induce kinase domain expression and then tested over a suitable concentration range with compounds of the invention for 60 minutes. Cells were then washed with PBS and lysed with Tris-SDS lysis Buffer (50 mM Tris-HCl pH7.4, 0.5% (v/v) SDS, 1×PhosStop Inhibitors (04 906 837 001; Roche) and 1×Complete Protease Inhibitors (04 693 124 001; Roche)). Whole cell lysates were clarified by passing through QIAshredder spin columns, separated by SDS-PAGE, and quantitative immunoblotting performed using a LI-COR Odyssey IR scanner to determine pMLC (T18/S19) and α-Tubulin levels.

ROCK1 [4] = target: T1, ROCK1; details: read-out: ROCK1 Average Ki; 1 μM ATP
Procedure: as §2

MRCKα = MRCKα (Homo sapiens (Human), UniProt Q5VT25); test: MRCKα kinase assay (IMAP fluorescence polarization); format: biochemical; details: 1 μM ATP; read-out: MRCK-a Average Ki
Description: as §1

Chain of ROCK2 (O75116 whole entry, the tested form may be a part): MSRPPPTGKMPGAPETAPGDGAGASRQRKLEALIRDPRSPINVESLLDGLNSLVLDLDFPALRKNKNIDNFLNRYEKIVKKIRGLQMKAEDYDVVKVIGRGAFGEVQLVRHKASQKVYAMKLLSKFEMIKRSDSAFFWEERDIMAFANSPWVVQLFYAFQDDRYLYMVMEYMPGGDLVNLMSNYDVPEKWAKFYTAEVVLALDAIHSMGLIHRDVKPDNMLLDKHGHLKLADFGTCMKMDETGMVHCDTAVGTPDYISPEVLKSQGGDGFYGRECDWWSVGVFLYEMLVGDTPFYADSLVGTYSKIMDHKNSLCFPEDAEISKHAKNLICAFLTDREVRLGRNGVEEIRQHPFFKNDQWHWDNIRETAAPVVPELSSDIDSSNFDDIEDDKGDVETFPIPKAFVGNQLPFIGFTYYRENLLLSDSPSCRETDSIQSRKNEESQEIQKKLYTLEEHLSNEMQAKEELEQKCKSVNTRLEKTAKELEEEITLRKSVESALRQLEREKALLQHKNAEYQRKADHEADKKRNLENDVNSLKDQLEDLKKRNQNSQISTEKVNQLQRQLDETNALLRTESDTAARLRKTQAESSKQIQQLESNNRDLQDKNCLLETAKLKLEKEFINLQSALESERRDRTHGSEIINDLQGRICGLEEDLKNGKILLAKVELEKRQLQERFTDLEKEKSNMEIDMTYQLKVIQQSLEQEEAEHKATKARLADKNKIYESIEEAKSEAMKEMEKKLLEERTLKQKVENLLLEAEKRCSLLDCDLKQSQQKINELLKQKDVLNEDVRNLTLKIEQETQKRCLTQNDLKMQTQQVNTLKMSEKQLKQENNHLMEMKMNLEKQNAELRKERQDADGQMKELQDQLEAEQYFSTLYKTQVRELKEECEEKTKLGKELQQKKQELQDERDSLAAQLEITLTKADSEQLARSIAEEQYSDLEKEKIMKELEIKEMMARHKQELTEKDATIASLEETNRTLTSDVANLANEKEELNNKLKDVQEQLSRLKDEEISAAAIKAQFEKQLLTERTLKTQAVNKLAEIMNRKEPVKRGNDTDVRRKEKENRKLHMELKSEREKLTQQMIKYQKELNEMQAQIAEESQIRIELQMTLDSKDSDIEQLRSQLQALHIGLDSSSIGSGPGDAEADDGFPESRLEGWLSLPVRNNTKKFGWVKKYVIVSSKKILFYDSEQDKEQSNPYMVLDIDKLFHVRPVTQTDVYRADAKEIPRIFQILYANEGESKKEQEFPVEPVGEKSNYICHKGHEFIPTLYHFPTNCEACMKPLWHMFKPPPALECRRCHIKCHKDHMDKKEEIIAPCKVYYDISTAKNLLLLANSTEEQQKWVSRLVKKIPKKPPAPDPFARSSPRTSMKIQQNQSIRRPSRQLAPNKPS
T1 sequence (Q13464 2-1354 limits assumed): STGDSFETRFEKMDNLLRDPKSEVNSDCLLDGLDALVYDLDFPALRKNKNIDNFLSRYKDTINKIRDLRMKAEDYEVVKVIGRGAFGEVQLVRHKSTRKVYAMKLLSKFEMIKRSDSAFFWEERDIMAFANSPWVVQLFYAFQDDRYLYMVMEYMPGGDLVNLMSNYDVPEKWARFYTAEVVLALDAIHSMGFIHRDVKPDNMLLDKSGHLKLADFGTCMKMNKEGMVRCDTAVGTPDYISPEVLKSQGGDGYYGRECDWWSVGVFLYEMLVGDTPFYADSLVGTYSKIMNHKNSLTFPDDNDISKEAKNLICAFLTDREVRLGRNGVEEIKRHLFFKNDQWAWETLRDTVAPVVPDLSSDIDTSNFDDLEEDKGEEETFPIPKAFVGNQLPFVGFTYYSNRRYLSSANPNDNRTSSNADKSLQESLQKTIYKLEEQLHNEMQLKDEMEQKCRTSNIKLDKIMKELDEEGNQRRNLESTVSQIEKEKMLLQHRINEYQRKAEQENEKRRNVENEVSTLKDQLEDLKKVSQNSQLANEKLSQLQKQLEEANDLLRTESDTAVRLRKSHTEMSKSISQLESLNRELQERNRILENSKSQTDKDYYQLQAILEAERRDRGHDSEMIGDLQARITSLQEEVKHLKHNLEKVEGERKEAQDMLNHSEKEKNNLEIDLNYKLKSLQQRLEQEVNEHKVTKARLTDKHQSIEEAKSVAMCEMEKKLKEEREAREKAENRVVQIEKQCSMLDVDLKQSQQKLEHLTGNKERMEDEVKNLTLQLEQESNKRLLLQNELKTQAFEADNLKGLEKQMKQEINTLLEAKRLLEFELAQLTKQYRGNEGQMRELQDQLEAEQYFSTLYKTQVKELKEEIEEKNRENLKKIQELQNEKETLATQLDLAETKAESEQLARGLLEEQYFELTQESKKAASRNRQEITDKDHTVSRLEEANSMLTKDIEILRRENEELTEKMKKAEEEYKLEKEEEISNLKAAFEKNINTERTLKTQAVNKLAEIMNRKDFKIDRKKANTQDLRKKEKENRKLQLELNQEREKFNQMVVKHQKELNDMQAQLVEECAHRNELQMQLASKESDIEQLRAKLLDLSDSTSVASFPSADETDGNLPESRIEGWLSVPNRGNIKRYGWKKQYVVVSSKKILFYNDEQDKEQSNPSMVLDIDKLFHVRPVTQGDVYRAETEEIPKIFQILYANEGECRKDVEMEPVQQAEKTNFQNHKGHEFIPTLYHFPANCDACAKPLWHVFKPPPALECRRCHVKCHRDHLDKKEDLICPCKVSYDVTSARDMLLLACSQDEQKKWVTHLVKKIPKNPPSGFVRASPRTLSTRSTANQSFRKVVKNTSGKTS
Chain of MRCKα (Q5VT25 whole entry): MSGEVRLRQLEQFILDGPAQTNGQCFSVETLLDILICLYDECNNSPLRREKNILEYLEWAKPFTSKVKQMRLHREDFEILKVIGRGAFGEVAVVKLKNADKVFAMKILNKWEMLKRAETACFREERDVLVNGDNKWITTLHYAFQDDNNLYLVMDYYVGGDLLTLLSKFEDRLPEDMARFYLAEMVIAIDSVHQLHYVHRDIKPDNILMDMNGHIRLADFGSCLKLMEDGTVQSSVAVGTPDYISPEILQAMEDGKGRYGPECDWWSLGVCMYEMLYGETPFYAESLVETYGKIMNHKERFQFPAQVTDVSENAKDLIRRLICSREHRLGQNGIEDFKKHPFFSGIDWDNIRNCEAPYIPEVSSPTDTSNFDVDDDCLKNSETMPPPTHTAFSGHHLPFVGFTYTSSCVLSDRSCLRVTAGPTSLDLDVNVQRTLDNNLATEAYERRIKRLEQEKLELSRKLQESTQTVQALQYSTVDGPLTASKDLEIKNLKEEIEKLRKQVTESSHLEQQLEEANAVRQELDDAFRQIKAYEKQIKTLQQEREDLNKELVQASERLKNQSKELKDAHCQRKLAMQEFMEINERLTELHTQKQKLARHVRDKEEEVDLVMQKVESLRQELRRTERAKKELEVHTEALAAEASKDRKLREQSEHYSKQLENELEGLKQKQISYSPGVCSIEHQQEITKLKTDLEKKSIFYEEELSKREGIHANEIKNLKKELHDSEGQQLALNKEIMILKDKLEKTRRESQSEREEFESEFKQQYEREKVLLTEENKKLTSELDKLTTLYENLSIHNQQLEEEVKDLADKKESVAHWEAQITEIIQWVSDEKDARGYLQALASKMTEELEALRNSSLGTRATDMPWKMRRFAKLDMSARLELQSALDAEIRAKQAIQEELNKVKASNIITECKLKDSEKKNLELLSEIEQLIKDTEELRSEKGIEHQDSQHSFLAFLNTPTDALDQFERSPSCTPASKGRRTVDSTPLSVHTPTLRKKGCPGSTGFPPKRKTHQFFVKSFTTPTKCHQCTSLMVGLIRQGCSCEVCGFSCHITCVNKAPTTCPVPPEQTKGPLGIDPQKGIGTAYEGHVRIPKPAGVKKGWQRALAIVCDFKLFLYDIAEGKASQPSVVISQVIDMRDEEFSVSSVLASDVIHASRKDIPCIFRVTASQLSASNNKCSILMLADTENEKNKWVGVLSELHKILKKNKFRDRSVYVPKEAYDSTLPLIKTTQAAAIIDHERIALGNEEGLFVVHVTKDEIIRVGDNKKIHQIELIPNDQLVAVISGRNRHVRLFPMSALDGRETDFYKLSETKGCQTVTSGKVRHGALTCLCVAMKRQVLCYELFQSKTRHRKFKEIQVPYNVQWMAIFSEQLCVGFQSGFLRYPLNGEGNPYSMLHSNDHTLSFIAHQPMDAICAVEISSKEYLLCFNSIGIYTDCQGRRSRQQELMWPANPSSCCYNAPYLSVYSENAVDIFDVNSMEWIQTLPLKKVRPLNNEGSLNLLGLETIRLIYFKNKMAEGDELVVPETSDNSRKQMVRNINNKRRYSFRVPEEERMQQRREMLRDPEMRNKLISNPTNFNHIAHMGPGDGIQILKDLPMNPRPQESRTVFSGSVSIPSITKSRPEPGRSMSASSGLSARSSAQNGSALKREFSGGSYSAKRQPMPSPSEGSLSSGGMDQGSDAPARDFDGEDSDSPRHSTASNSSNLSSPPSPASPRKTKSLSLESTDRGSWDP

Row | SMILES | Ki (ROCK1 [1]) | Ki (MRCKβ [2]) | Ki (ROCK2) | IC50 (MRCKβ [3]) | Ki (ROCK1 [4]) | Ki (MRCKα)
1 | N#Cc1c[nH]c2nccc(N3CCC[C@]4(CCCCN4)C3)c12 [Example E186, 4-[(6R)-1,8-diazaspiro[5.5]undecan-8-yl]-1H-pyrrolo[2,3-b]pyridine-3-carbonitrile] | 347 nM |  |  |  |  | 
2 | N#Cc1c[nH]c2nccc(N3CCC[C@H]3COc3ccccc3)c12 [Example E40, 4-[(2S)-2-(phenoxymethyl)pyrrolidin-1-yl]-1H-pyrrolo[2,3-b]pyridine-3-carbonitrile] | 2150 nM | 247 nM | 1070 nM |  |  | 
3 | CN1CC[C@@H]2CCN(c3ccnc4[nH]cc(-c5cncnc5)c34)C[C@@H]21 [Example E180, 4-[(3aR,7aR)-1-methyl-3,3a,4,5,7,7a-hexahydro-2H-pyrrolo[2,3-c]pyridin-6-yl]-3-pyrimidin-5-yl-1H-pyrrolo[2,3-b]pyridine] | 3420 nM | 124 nM | 1580 nM |  |  | 
4 | c1cc(-c2c[nH]c3nccc(N4CCC[C@H](NC5CC5)C4)c23)ncn1 [Example E41, (3S)—N-cyclopropyl-1-(3-pyrimidin-4-yl-1H-pyrrolo[2,3-b]pyridin-4-yl)piperidin-3-amine] | 34.4 nM | 0.202 nM |  |  |  | 
5 | O[C@@H]1CCCN(c2ccnc3[nH]cc(-c4cncnc4)c23)C1 [Example E100, (3R)-1-(3-pyrimidin-5-yl-1H-pyrrolo[2,3-b]pyridin-4-yl)piperidin-3-ol] | 505 nM | 71.3 nM | 277 nM |  |  | 
6 | c1ncc(-c2c[nH]c3nccc(OC[C@@H]4CCCNC4)c23)cn1 [Example E214, 4-[[(3R)-3-piperidyl]methoxy]-3-pyrimidin-5-yl-1H-pyrrolo[2,3-b]pyridine] | 42 nM | 1.07 nM | 32.1 nM |  |  | 
7 | N#Cc1c[nH]c2nccc(N3CC[C@@H](N)C3)c12 [Example E197, 4-[(3R)-3-aminopyrrolidin-1-yl]-1H-pyrrolo[2,3-b]pyridine-3-carbonitrile] | 19.8 nM | 8.82 nM | 7 nM |  |  | 
8 | N#Cc1c[nH]c2nccc(N3CCC[C@@H]3CO)c12 [Example E39, 4-[(2R)-2-(hydroxymethyl)pyrrolidin-1-yl]-1H-pyrrolo[2,3-b]pyridine-3-carbonitrile] | 103 nM | 29.7 nM | 86.8 nM |  |  | 
9 | c1cc(-c2c[nH]c3nccc(N4CCCC5(CCCCN5)C4)c23)ncn1 (stereo not shown) [Example E168, 8-(3-pyrimidin-4-yl-1H-pyrrolo[2,3-b]pyridin-4-yl)-1,8-diazaspiro[5.5]undecane] |  | 0.065 nM | 30.9 nM | < 30 nM | 89 nM | 
10 | CN1CCCN(C(=O)[C@@H]2CCCN2c2ccnc3[nH]cc(C#N)c23)CC1 [Example E201, 4-[(2S)-2-(4-methyl-1,4-diazepane-1-carbonyl)pyrrolidin-1-yl]-1H-pyrrolo[2,3-b]pyridine-3-carbonitrile] | 1050 nM | 147 nM | 703 nM |  |  | 
11 | CN1CC[C@H]2CN(c3ccnc4[nH]cc(-c5cncnc5)c34)CC[C@H]21 [Example E200, 4-[(3aS,7aR)-1-methyl-3,3a,4,6,7,7a-hexahydro-2H-pyrrolo[3,2-c]pyridin-5-yl]-3-pyrimidin-5-yl-1H-pyrrolo[2,3-b]pyridine] | 196 nM | 3.13 nM | 145 nM |  |  | 
12 | c1ncc(-c2c[nH]c3nccc(OC[C@H]4CCCNC4)c23)cn1 [Example E218, 4-[[(3S)-3-piperidyl]methoxy]-3-pyrimidin-5-yl-1H-pyrrolo[2,3-b]pyridine] | 18.6 nM | 1.15 nM | 17.6 nM |  |  | 0.189 nM
13 | CN[C@H]1CCCN(c2ccnc3[nH]cc(-c4cc[nH]n4)c23)C1 [Example E83, (3S)-N-methyl-1-[3-(1H-pyrazol-3-yl)-1H-pyrrolo[2,3-b]pyridin-4-yl]piperidin-3-amine] | 1110 nM | 1.85 nM | 196 nM |  |  | 0.481 nM
14 | c1ncc(-c2c[nH]c3nccc(N[C@H]4CCCNC4)c23)cn1 [Example E87, N-[(3S)-3-piperidyl]-3-pyrimidin-5-yl-1H-pyrrolo[2,3-b]pyridin-4-amine] | 50300 nM | 54.3 nM | 326 nM |  |  | 33.6 nM
15 | OC1CCN([C@H]2CCCN(c3ccnc4[nH]cc(-c5cncnc5)c34)C2)CC1 [Example E92, 1-[(3S)-1-(3-pyrimidin-5-yl-1H-pyrrolo[2,3-b]pyridin-4-yl)-3-piperidyl]piperidin-4-ol] | 5000 nM | 4.97 nM | 1510 nM |  |  | 
16 | Brc1cnc2[nH]cc(-c3cc[nH]n3)c2c1N1CCCCC1 [Example E70, 5-bromo-4-(1-piperidyl)-3-(1H-pyrazol-3-yl)-1H-pyrrolo[2,3-b]pyridine] | 1300 nM | 346 nM | 276 nM |  |  | 
17 | Nc1cncc(-c2c[nH]c3nccc(N4CCCCC4)c23)c1 [Example E6, 5-[4-(1-piperidyl)-1H-pyrrolo[2,3-b]pyridin-3-yl]pyridin-3-amine] | 3.5 nM | 1.11 nM | 1.9 nM |  |  | 
18 | CN1CCC[C@@H](COc2ccnc3[nH]cc(-c4cncnc4)c23)C1 [Example E224, 4-[[(3R)-1-methyl-3-piperidyl]methoxy]-3-pyrimidin-5-yl-1H-pyrrolo[2,3-b]pyridine] | 152 nM | 3.29 nM | 102 nM |  |  | 1.91 nM
19 | N#Cc1c[nH]c2nccc(N3CCC[C@H]3CO)c12 [Example E38, 4-[(2S)-2-(hydroxymethyl)pyrrolidin-1-yl]-1H-pyrrolo[2,3-b]pyridine-3-carbonitrile] | 16.7 nM | 5.08 nM | 12.7 nM |  |  | 
20 | c1cc(N2CCCCC2)c2c(-c3cn[nH]c3)c[nH]c2n1 [Example E183, 4-(1-piperidyl)-3-(1H-pyrazol-4-yl)-1H-pyrrolo[2,3-b]pyridine] |  | 6.03 nM | 12.3 nM |  | 31 nM | 12.6 nM
21 | CN(C)[C@H]1CCCN(c2ccnc3[nH]cc(-c4cncnc4)c23)C1 [Example E82, (3S)-N,N-dimethyl-1-(3-pyrimidin-5-yl-1H-pyrrolo[2,3-b]pyridin-4-yl)piperidin-3-amine] |  | 13.1 nM | 362 nM |  | 648 nM | 17.2 nM
22 | c1ncc(-c2c[nH]c3nccc(N4CCCC5(CCCN5)C4)c23)cn1 (stereo not shown) [Example E195, 9-(3-pyrimidin-5-yl-1H-pyrrolo[2,3-b]pyridin-4-yl)-1,9-diazaspiro[4.5]decane] |  | 3.27 nM | 174 nM |  | 332 nM | 4.69 nM
23 | N#Cc1c[nH]c2nccc(N3CCC4(CCCCN4)C3)c12 (stereo not shown) [Example E184, 4-(2,6-diazaspiro[4.5]decan-2-yl)-1H-pyrrolo[2,3-b]pyridine-3-carbonitrile] | 21.9 nM |  |  |  |  | 
24 | c1ncc(-c2c[nH]c3nccc(N4CCC[C@H](N5CCCCC5)C4)c23)cn1 [Example E98, 4-[(3S)-3-(1-piperidyl)-1-piperidyl]-3-pyrimidin-5-yl-1H-pyrrolo[2,3-b]pyridine] |  | 4.24 nM | 979 nM |  | 2530 nM | 7.9 nM
25 | CN1CCCN(c2ccnc3[nH]cc(C#N)c23)CC1 [Example E30, 4-(4-methyl-1,4-diazepan-1-yl)-1H-pyrrolo[2,3-b]pyridine-3-carbonitrile] |  | 5.73 nM | 20.2 nM |  | 24.3 nM | 12.8 nM
26 | c1ncc(-c2c[nH]c3nccc(N4CCC[C@H](N5CCC5)C4)c23)cn1 [Example E97, 4-[(3S)-3-(azetidin-1-yl)-1-piperidyl]-3-pyrimidin-5-yl-1H-pyrrolo[2,3-b]pyridine] |  | 3.93 nM | 366 nM |  | 686 nM | 5.2 nM
27 | CN(C)C1CCCN(c2ccnc3[nH]cc(-c4cncnc4)c23)C1 (stereo not shown) [Example E60, N,N-dimethyl-1-(3-pyrimidin-5-yl-1H-pyrrolo[2,3-b]pyridin-4-yl)piperidin-3-amine] | 404 nM | 13.6 nM | 201 nM |  |  | 
28 | c1cc(N2CCC[C@]3(CCCCN3)C2)c2c(-c3ncsn3)c[nH]c2n1 [Example E115, 3-[4-[(6R)-1,8-diazaspiro[5.5]undecan-8-yl]-1H-pyrrolo[2,3-b]pyridin-3-yl]-1,2,4-thiadiazole] | ≥ 100000 nM | 2.48 nM |  |  |  | 
29 | OC1CCN([C@H]2CCCN(c3ccnc4[nH]cc(-c5cncnc5)c34)C2)C1 (stereo partly drawn) [Example E93, [(3S)-1-(3-pyrimidin-5-yl-1H-pyrrolo[2,3-b]pyridin-4-yl)-3-piperidyl]pyrrolidin-3-ol] | 2380 nM | 4.78 nM | 830 nM |  |  | 11.6 nM
30 | c1cc(-c2c[nH]c3nccc(N4CCCCC4)c23)[nH]n1 [Example E181, 4-(1-piperidyl)-3-(1H-pyrazol-5-yl)-1H-pyrrolo[2,3-b]pyridine] |  | 9.45 nM | 15.4 nM |  | 25 nM | 9.1 nM
